Source: ChEMBL document CHEMBL1201862, “PubChem BioAssay data set” (2004)
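Briefly, cells in 96-well plates were exposed to five compound concentrations for 48 h, and endpoints were estimated by linear interpolation. GI50: concentration for 50% inhibition of growth.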 Active and inactive are the calls of the source. Cut-off read from the data, not from the text of the source: active = GI50 up to about 1.1 µM and inactive = higher.

Key:
Test in all cases: growth of human tumour cells (NCI), 48 h
[1] = tested on: SK-MEL-2
[2] = tested on: SNB-19
[3] = tested on: SR
[4] = tested on: OVCAR-5
[5] = tested on: SF-268
[6] = tested on: SF-295
[7] = tested on: MDA-N
[8] = tested on: OVCAR-8
[9] = tested on: IGROV-1
[10] = tested on: DU-145
[11] = tested on: ACHN
[12] = tested on: SK-MEL-28
[13] = tested on: UACC-257
[14] = tested on: LOX IMVI
[15] = tested on: 786-0
[16] = tested on: SK-MEL-5
[17] = tested on: PC-3
[18] = tested on: TK-10
[19] = tested on: HOP-92
[20] = tested on: Hs-578T

Measured: GI50

COc1ccc(/C=C2\C=Cc3ccccc32)cc1OC
inactive: [1] 72.1 µM | [2] > 100 µM | [3] 50.9 µM | [4] > 100 µM | [5] > 100 µM | [6] > 100 µM | [7] > 100 µM | [8] > 100 µM | [9] 73.8 µM | [10] > 100 µM | [11] 78.2 µM | [12] > 100 µM | [13] > 100 µM | [14] > 100 µM | [15] 57.5 µM | [16] 43.2 µM | [17] 46.5 µM | [18] > 100 µM | [19] 6.49 µM | [20] 29.9 µM

COc1cc(/C=C2\CCC/C(=C\c3ccc(O)c(OC)c3)C2=O)ccc1O [CYCLOVALONE]
inactive: [1] 3.56 µM | [2] 6.15 µM | [3] 1.28 µM | [4] 9.66 µM | [5] 2.39 µM | [6] 2.92 µM | [7] 2.42 µM | [8] 1.72 µM | [9] 2.77 µM | [10] 3.47 µM | [11] 2.06 µM | [12] 3.41 µM | [13] 5.01 µM | [14] 1.67 µM | [15] 2.07 µM | [16] 2.51 µM | [17] 3.66 µM | [18] 5 µM | [19] 5.2 µM | [20] 4.16 µM
